Key:
[1] = target: T1, human thrombopoietin receptor (c-mpl) (Homo sapiens, UniProt P40238); experiment: Stimulation of proliferation of thrombopoietin-dependent cell line UT7/EPO-mpl (WST-8); assay type: cell-based; settings: for EC50: human leukemic cell line UT-7/EPO-mpl, 4 days incubation, relative to 10 ng/mL TPO, read-out: EC50 (concentration that yields a growth rate corresponding to 50% of the growth observed in the presence of 10 ng/mL TPO) (converted)
T1 construct: expressed in transfected cells
T1 sequence (P40238 26-635): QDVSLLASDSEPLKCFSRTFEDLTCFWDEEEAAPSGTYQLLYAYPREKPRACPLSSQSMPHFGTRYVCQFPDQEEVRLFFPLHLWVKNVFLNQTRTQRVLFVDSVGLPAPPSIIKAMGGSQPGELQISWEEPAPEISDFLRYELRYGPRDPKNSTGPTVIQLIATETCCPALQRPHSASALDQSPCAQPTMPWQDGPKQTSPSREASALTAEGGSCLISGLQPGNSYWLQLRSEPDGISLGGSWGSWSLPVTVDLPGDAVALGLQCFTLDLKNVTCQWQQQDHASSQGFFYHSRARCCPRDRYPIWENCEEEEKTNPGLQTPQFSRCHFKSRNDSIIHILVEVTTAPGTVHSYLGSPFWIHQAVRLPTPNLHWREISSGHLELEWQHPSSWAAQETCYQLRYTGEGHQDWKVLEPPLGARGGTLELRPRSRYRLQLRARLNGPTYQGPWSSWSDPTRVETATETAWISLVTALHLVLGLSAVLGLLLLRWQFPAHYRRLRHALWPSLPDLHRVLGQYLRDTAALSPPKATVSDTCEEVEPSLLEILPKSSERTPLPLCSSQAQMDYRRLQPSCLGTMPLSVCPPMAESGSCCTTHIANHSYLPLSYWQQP
Method: The response of thrombopoietin receptor to the compound of Synthetic Example 2 of the present invention was assayed using a human leukemic cell line, UT7/EPO-mpl.
(§1) UT7/EPO-mpl is a stable transformed cell line obtained by introducing into human leukemic cell line UT7/EPO a vector that induces expression of human thrombopoietin receptor (c-mpl) under control of cytomegalovirus immediate-early promoter by the method of Takatoku et al. (J. Biol. Chem., 272:7259-7263 (1997)). […] These two cell lines were subcultured in IMDM (GIBCO) containing 10% fetal bovine serum (Thermo Electron or BioWest) using a CO2 incubator (5% CO2, 37° C.).
The subcultured cells described above were washed twice with PBS and suspended in IMDM containing 10% fetal bovine serum at a cell density of 6×10^4 cells/ml. The cell suspension was transferred to a 96-well tissue culture plate (CORNING) in 100-μl aliquots. Then either thrombopoietin (Pepro Tech EC, or the compound of Synthetic Example 2 dissolved in dimethyl sulfoxide was diluted 83-fold with IMDM containing 10% fetal bovine serum and added to the aforementioned cell suspension in 20-μl aliquots. The cell suspension was incubated in a CO2 incubator (5% CO2, 37° C.) for 4 days. Cell proliferation was assayed using WST-8 reagent (Kishida Chemical Co., Ltd.) according to instructions by the manufacturer. A 10-μl aliquot of 5 mM WST-8 reagent solution was added to each well of the tissue culture plate, and the plate was incubated at 37° C. for 4 hours. The formazan pigment generated was detected by measuring the absorbance at 450 nm with a 96-well microplate reader (Nihon Molecular Devices, Spectramax 190).
The compounds of the following Synthetic Examples were tested according to the method of Assay Example 1 to determine the concentration of each compound that yields a growth rate corresponding to 50% of the growth of human leukemic cell line UT-7/EPO-mpl observed in the presence of 10 ng/mL TPO (EC50).

[2] = test system: UT7/EPO cells; experiment: Proliferation of mother cell line UT7/EPO expressing no thrombopoietin receptor (WST-8); assay type: cell-based, human; settings: FIG. 2
Method: as §1
The subcultured cells described above were washed twice with PBS and suspended in IMDM containing 10% fetal bovine serum at a cell density of 6×10^4 cells/ml. The cell suspension was transferred to a 96-well tissue culture plate (CORNING) in 100-μl aliquots. […] The formazan pigment generated was detected by measuring the absorbance at 450 nm with a 96-well microplate reader (Nihon Molecular Devices, Spectramax 190).

[3] = test system: UT7/EPO cells; settings: property of the cell line as described; cited from earlier work
[4] = target: T1, human thrombopoietin receptor (c-mpl); settings: property of the cell line as described; cited from earlier work

| Compound | EC50 [1] [nM] | also measured |
| --- | --- | --- |
| C/C(=N\NC(=O)c1ccc(C(=O)NCC2CCCO2)s1)c1csc(-c2ccc(Cl)c(Cl)c2)c1O (stereo not shown) [Synthetic Example 2, 5-{1-[5-(3,4-Dichlorophenyl)-4-hydroxythiophen-3-yl]ethylidenehydrazinocarbonyl}thiophene-2-carboxylic acid(tetrahydrofuran-2-ylmethyl)amide] | – | proliferation of thrombopoietin-responsive UT7/EPO-mpl cells ([1]; FIG. 1, UT7/EPO-mpl cells, 4 days, WST-8 absorbance at 450 nm): stimulated; acts on the thrombopoietin receptor selectively as an activator ([1]; conclusion from UT7/EPO-mpl versus UT7/EPO): selectively; effect on proliferation of UT7/EPO, the mother cell line [2]: no effect |
| CC(=O)NC1CCN(C(=O)c2ccc(C(=O)N/N=C(\C)c3csc(-c4ccc(Cl)c(Cl)c4)c3O)s2)C1 (stereo not shown) [compound 5] | 0.566 | – |
| C/C(=N\NC(=O)c1ccc(C(=O)NN(C)C)s1)c1csc(-c2ccc(C(C)(C)C)cc2)c1O [compound 24] | 2.27 | – |
| C/C(=N\NC(=O)c1ccc(C(=O)NCCC(=O)O)s1)c1csc(-c2ccc(Cl)cc2)c1O [compound 45] | 6.5 | – |
| C/C(=N\NC(=O)c1ccc(C(=O)NCCCN2CCOCC2)s1)c1nn(C)c(-c2ccc(C(F)(F)F)cc2)c1O [compound 49] | 2.77 | – |
| C/C(=N\NC(=O)c1ccc(C(=O)NNc2ccccn2)s1)c1csc(-c2ccc(Cl)c(Cl)c2)c1O [compound 58] | 1.56 | – |
| C/C(=N\NC(=O)c1ccc(C(=O)NCCC(=O)O)s1)c1csc(-c2ccc(C)c(C)c2)c1O [compound 65] | 4.12 | – |
| COC1CN(C(=O)c2ccc(C(=O)N/N=C(\C)c3csc(-c4ccc(Br)cc4)c3O)s2)CC1OC (stereo not shown) [compound 84] | 5.01 | – |
| C/C(=N\NC(=O)c1ccc(C(=O)N2CC(O)C(O)C2)s1)c1csc(-c2cccc(Cl)c2)c1O (stereo not shown) [compound 90] | 0.652 | – |
| TPO: Thrombopoietin is a cytokine consisting of 332 amino acids that increases platelet production | – | response of mother cell line UT7/EPO [3]: no response; proliferation of UT7/EPO-mpl cell line [4]: stimulated |

Reference: patent US8134013B2, “Amide compound and thrombopoietin receptor activator” (Nissan Chemical Industries, Ltd., priority 2004, dated 2012)
